According to patent publication US11628216B2 (priority 2013, dated 2023):
Where two headings read alike, the source gives them in different places.

What was measured:
[1] = after last heroin use; cited from earlier work
[2] = tested on: antibodies of Example 3 (antibody of the invention against 6-acetylmorphine); format: binding; details: 6-AM Conc. 10 ng/mL
Experimental: Cross reactivity to heroin metabolites and other common structurally related opiates may be evaluated using the antibodies described herein. Immunoassays are constructed using the antibodies of Example 3, configured to operate in a competitive mode immunoassay format, in which the analogue compounds of the invention are compared with other related compounds for cross reaction against 6-acetylmorphine. […] Aliquots of labeled 6-acetylmorphine at 10 ng/mL are incubated in the presence of competing compound with the antibody of the invention, and the level of interaction of the competitor compound determined as a reduction in measured signal compared with the situation where only 6-acetylmorphine is present.
Cross reactivity to heroin metabolites and other common structurally related opiates were evaluated using the antibodies as described with reference to Example 3. […] Aliquots of labeled 6-acetylmorphine at 10 ng/mL were incubated in the presence of competing compound with the antibody of the invention, and the level of interaction of the competitor compound determined as a reduction in measured signal compared with the situation where only 6-acetylmorphine was present.

[3] = tested on: selected monoclonal antibody against 6-AM; test: competitive assay for 6-AM developed with a selected antibody; format: binding; details: at clinically relevant concentrations
Experimental: (§1) The bacterial cells from each antibody library are streaked on agar to generate colonies. The colonies, coding for monoclonal antibodies, are used to inoculate culture medium in individual wells in 96-well plates. The liquid cultures are grown overnight and used to generate frozen cell stocks. The frozen cell stocks are used to generate duplicate 96-well plate cultures, followed by expression and purification of the monoclonal antibodies in soluble form in microgram quantities.
as §1, with “were” for “are”

| Structure (SMILES) | crossreactivity [3] | other results |
| --- | --- | --- |
| CC(=O)O[C@H]1C=CC2[C@H]3Cc4ccc(O)c5c4[C@@]2(CCN3C)[C@H]1O5 (stereo partly drawn) [6-Acetylmorphine] | – | time 6-AM remains in the urine [1]: no more than 24 hours; Cross-Reactivity (%) ([2]; Analyte Conc. 10 ng/mL): 100% |
| CC(=O)Oc1ccc2c3c1O[C@H]1[C@@H](OC(C)=O)C=C[C@H]4[C@@H](C2)N(C)CC[C@@]341 [Heroin, Diacetylmorphine] | – | Cross-Reactivity (%) ([2]; Analyte Conc. 750 ng/mL): 1.3% |
| CN1CC[C@]23c4c5ccc(O[C@@H]6O[C@H](C(=O)O)[C@@H](O)[C@H](O)[C@H]6O)c4O[C@H]2[C@@H](O)C=C[C@H]3[C@H]1C5 [Morphine 3-D-glucuronide] | no crossreactivity | – |
| CN1CC[C@]23c4c5ccc(O)c4O[C@H]2[C@@H](O[C@@H]2O[C@H](C(=O)O)[C@@H](O)[C@H](O)[C@H]2O)C=C[C@H]3[C@H]1C5 [Morphine 6-D-glucuronide] | no crossreactivity | – |
| CN1CC[C@]23c4c5ccc(O)c4O[C@H]2[C@@H](O)C=C[C@H]3[C@H]1C5 [Morphine] | no crossreactivity | – |
